{"source": "patent US9050375B2", "about": "“Bi-specific digoxigenin binding antibodies” (priority 2009, dated 2015)", "molecules": {"B1": {"name": "murine DIG-IgG 19-11: hybridoma clone 19-11 derived murine anti-digoxigenin IgG1 kappa; VL Seq. ID. NO. 1, VH Seq. ID. NO. 2 (antibody, listed as Mus musculus, V domains shown)", "VH": "MNFVLSLIFLALILKGVQCEVQLVESGGGLVKPGGSLKLSCAVSGFTFSDYAMSWIRQTPENRLEWVASINIGATYAYYPDSVKGRFTISRDNAKNTLFLQMSSLGSEDTAMYYCARPGSPYEYDKAYYSMAYWGPGTSVTVSS", "VL": "MSSAQFLGLLLLCFQGTRCDVQMTQSTSSLSASLGDRVTISCRASQDIKNYLNWYQQKPGGTVKLLIYYSSTLLSGVPSRFSGRGSGTDFSLTITNLEREDIATYFCQQSITLPPTFGGGTKLEIK", "notes": "hybridoma clone 19-11 derived murine anti-digoxigenin IgG1 kappa; ID; NO"}}, "key": {"[1]": {"system": "Eg5 mRNA in HeLa-S3 cells", "experiment": "Eg5 bDNA assay of transfected siRNAs", "type": "cell-based, human", "settings": "Lipofectamine 2000 transfection, 24 hours", "excerpt": "To evaluate whether additions or alterations of siRNAs by digoxygenin alters its biological activity, we performed in vitro assays in cell culture. For that, we chose to assess the activity of siRNA that inactivates the mRNA of Eg5. The direct effect of Eg5 siRNA activity is down-regulation of its cognate mRNA. This can be quantified by bDNA (branched DNA) assays, which detect the amount of specific mRNAs in cells (Burris et al., 1999, Molecular Endocrinology). To perform these assays, we seeded a defined number of the respective cell type into 96-well plates and allowed them to attach over night. The next day cells were transfected with desired amounts of a certain siRNA or treated with the agent whose effect on the mRNA-level should be analysed. After 24 hours the QuantiGene kit protocol was followed according to the instructions of the manufacturer (Affymetrix) in order to quantify the mRNA levels. Briefly, the cell lysates were transferred to a capture plate in the presence of a gene-specific probe set and then incubated at 53° C. over night. Wells were washed. They were then incubated at 53° C. sequentially with an Amplifier and an alkaline phosphatase-linked label probe with a wash between the incubations. After a final wash, the luminescent alkaline phosphatase substrate dioxitane was added and was incubated for 30 min at 53° C. The luminescence was detected using a InfiniteF200 luminescence reader (Tecan Austria, Gröding). The biological activity of siRNAs that target Eg5 can not only be determined by bDNA analyses, but also by the phenotype that is caused by Eg5 mRNA depletion in growing cells. Eg5 is a motor protein that belongs to the kinesin-like protein family. Eg5, also known as KSP (kinesin spindle protein), is essential for the formation of the bipolar mitotic spindle and is required for the proper separation of the spindle poles. Depletion of Eg5 leads to the formation of characteristic monoaster spindles and activates the spindle checkpoint. This causes a mitotic arrest that ultimately leads to apoptosis (Tao et. al., Molecular and cellular biology. 2007 January; 27(2):689-98) (Tao W. et. al., Cancer Cell. 2005; 8:49-59.) Because of that, inactivation of Eg5 by siRNA mediates in many cases a cytotoxic phenotype to cultured cells. Therefore, the biological activity of Eg5 siRNA can be analyzed by monitoring the number of living cells.\nTable 7 summarizes the results of the bDNA and cytotox assays that we performed to compare the biological activities of transfected siRNAs with that of their transfected digoxygenated counterparts. For the bDNA assays, we seeded HeLa-S3 cells into 96-well plates and allowed them to attach over night. The next day cells were transfected with the indicated amounts of siRNA using the Lipofectamine™ 2000 transfection reagent according to the instructions of the manufacturer (Invitrogen). After 24 hours the QuantiGene kit protocol was followed according to the instructions of the manufacturer (Affymetrix) in order to quantify the mRNA levels of the Eg5 mRNA."}, "[2]": {"system": "KPL-4 cells", "experiment": "Cytotox assay (CellTiter-Glo) of transfected siRNAs", "type": "cell-based, human", "settings": "Dharmafect transfection, 48 hours", "protocol": "To measure the number of living cells the CellTiter-Glo Luminescent Cell Viability Assay (Promega Madison, Wis.) assay was applied according to the protocol supplied by the manufacturer. In this assay the cells are lysed and a luminescent signal proportional to the ATP amount is generated. The ATP amount is directly proportional to the number of living cells. The 96 well plates were then analyzed in a InfiniteF200 luminescence reader (Tecan Austria, Gröding).\nFor the cytotox assays, KPL-4 cells were seeded at a density of 7000 cells per well in 96 well plates. The cells were incubated for 24 hours at 37° C., 5% CO2 and 85% humidity in RPMI with 10% FCS and L-Glutamine. The next day cells were transfected with the indicated amounts of siRNA using the Dharmafect transfection reagent according to the instructions of the manufacturer (Dharmacon). After 48 hours the cells were treated with the CellTiter-Glo-assay reagent according to the manufacturers instructions."}, "[3]": {"experiment": "Excitation and emission spectra of Cy5, Dig-Cy5 and complex", "type": "physicochemical", "excerpt": "To evaluate whether digoxygenation of Cy5 alters its fluorescence features, we compared the excitation and emission spectra of Cy5 and compared it with the spectra of the newly generated Dig-Cy5 and with Dig-Cy5 within a complex with bispecific antibodies. […] We conclude that Dig-Cy5 and -complexes can be applied for antibody-mediated targeting and in vivo imaging."}, "[4]": {"target": "Eg5-siRNA-DIG", "experiment": "SPR (Biacore) binding to mono-digoxygenated siRNA", "settings": "25° C.", "method": "(§1) For that, binding properties of the recombinant <Dig> derivatives were analyzed by surface plasmon resonance (SPR) technology using a Biacore T100 or Biacore 3000 instrument (GE Healthcare Bio-Sciences AB, Uppsala). […] To perform the binding studies capturing anti-human IgG antibody was immobilized on the surface of a CM5 biosensor chip using amine-coupling chemistry. Flow cells were activated with a 1:1 mixture of 0.1 M N-hydroxysuccinimide and 0.1 M 3-(N,N-dimethylamino)propyl-N-ethylcarbodiimide at a flow rate of 5 μl/min. […] A reference control flow cell was treated in the same way but with vehicle buffers only instead of the capturing antibody. Surfaces were blocked with an injection of 1 M ethanolamine/HCl pH 8.5. […]\n(§2) Anti-mouse IgG antibody was immobilized on the surface of a CM5 biosensor chip in the same fashion as described above. […] The samples to be analyzed were diluted in HBS-P (10 mM HEPES, pH 7.4, 150 mM NaCl, 0.005% Surfactant P20) and injected at a flow rate of 5 μl/min. […] Signals were detected at a rate of one signal per second.\n(§3) The samples to be analyzed were diluted in HBS-P and injected at a flow rate of 5 μl/min. […]"}, "[5]": {"target": "DIG-siRNA2349", "experiment": "SPR binding to DIG-siRNA2349", "settings": "analyte DIG-siRNA2349; replicate lines; listed as <DIG>M-19-11", "protocol": "For that, binding properties of the recombinant <Dig> derivatives were analyzed by surface plasmon resonance (SPR) technology using a Biacore T100 or Biacore 3000 instrument (GE Healthcare Bio-Sciences AB, Uppsala). This system is well established for the study of molecule interactions. It allows a continuous real-time monitoring of ligand/analyte bindings and thus the determination of association rate constants (ka), dissociation rate constants (kd), and equilibrium constants (KD) in various assay settings. SPR-technology is based on the measurement of the refractive index close to the surface of a gold coated biosensor chip. Changes in the refractive index indicate mass changes on the surface caused by the interaction of immobilized ligand with analyte injected in solution. If molecules bind to immobilized ligand on the surface the mass increases, in case of dissociation the mass decreases. To perform the binding studies capturing anti-human IgG antibody was immobilized on the surface of a CM5 biosensor chip using amine-coupling chemistry. Flow cells were activated with a 1:1 mixture of 0.1 M N-hydroxysuccinimide and 0.1 M 3-(N,N-dimethylamino)propyl-N-ethylcarbodiimide at a flow rate of 5 μl/min. […] A reference control flow cell was treated in the same way but with vehicle buffers only instead of the capturing antibody. Surfaces were blocked with an injection of 1 M ethanolamine/HCl pH 8.5. To compare the binding of the humanized protein variants with that of the murine <Dig> IgG from the original hybridoma 19-11, capturing anti-mouse IgG antibody was immobilized on the surface of a CM5 biosensor chip in the same fashion as described above for the anti-human IgG antibody. To evaluate the functionality of the recombinant <Dig> derivatives, binding of the recombinant hu<Dig> modules, incl. (i) humanized IgG, (ii) fusion proteins harboring hu<Dig> scFv or (iii) disulfide-stabilized scFvs was assayed with different digoxygenated antigens The resulting binding affinities were compared to the binding of the murine ‘wildtype’ DIG-IgG from which the recombinant humanized modules were derived. […]"}, "[6]": {"system": "DIG-Myoglobin", "experiment": "SPR binding to mono-digoxygenated protein DIG-myoglobin", "protocol": "For that, binding properties of the recombinant <Dig> derivatives were analyzed by surface plasmon resonance (SPR) technology using a Biacore T100 or Biacore 3000 instrument (GE Healthcare Bio-Sciences AB, Uppsala). This system is well established for the study of molecule interactions. It allows a continuous real-time monitoring of ligand/analyte bindings and thus the determination of association rate constants (ka), dissociation rate constants (kd), and equilibrium constants (KD) in various assay settings. SPR-technology is based on the measurement of the refractive index close to the surface of a gold coated biosensor chip. Changes in the refractive index indicate mass changes on the surface caused by the interaction of immobilized ligand with analyte injected in solution. If molecules bind to immobilized ligand on the surface the mass increases, in case of dissociation the mass decreases. To perform the binding studies capturing anti-human IgG antibody was immobilized on the surface of a CM5 biosensor chip using amine-coupling chemistry. Flow cells were activated with a 1:1 mixture of 0.1 M N-hydroxysuccinimide and 0.1 M 3-(N,N-dimethylamino)propyl-N-ethylcarbodiimide at a flow rate of 5 μl/min. […] A reference control flow cell was treated in the same way but with vehicle buffers only instead of the capturing antibody. Surfaces were blocked with an injection of 1 M ethanolamine/HCl pH 8.5. To compare the binding of the humanized protein variants with that of the murine <Dig> IgG from the original hybridoma 19-11, capturing anti-mouse IgG antibody was immobilized on the surface of a CM5 biosensor chip in the same fashion as described above for the anti-human IgG antibody. To evaluate the functionality of the recombinant <Dig> derivatives, binding of the recombinant hu<Dig> modules, incl. (i) humanized IgG, (ii) fusion proteins harboring hu<Dig> scFv or (iii) disulfide-stabilized scFvs was assayed with different digoxygenated antigens The resulting binding affinities were compared to the binding of the murine ‘wildtype’ DIG-IgG from which the recombinant humanized modules were derived.\nAnother SPR study was performed in which the binding affinity of <DIG>-hu2, IGF1R-DIG and <DIG> M-19-11 was compared in terms of binding to the mono-digoxygenated protein DIG-myoglobin."}, "[7]": {"target": "Eg5-siRNA-(2×)DIG", "experiment": "SPR (Biacore) binding to bi-digoxygenated siRNA", "settings": "25° C., read-out: KD, binding of siRNA-(2x)DIG", "method": "as §1, §2, §3"}, "[8]": {"settings": "analyte DIG-Myoglobin, replicate lines, listed as <DIG>M-19-11"}}, "note": "Where “and” joins values, the source holds several entries; their conditions need not be identical. Equal values may be shown once. {Dig} = digoxigenin coupled through a C6 amino linker; {Cy5} = Cy5 fluorescent dye label; d = 2'-deoxy (DNA); m = 2'-O-methyl; r = 2'-OH (RNA)", "data": [{"molecule": "Luciferase siRNA: control siRNA, Seq. ID NO. 22/29 (chain 1 CUUACGCUGAGUACUUCGATT; chain 2 UCGAAGUACUCAGCGUAAGTT; chain 1: DNA at T, 2'-O-methyl at CU, RNA at AG, backbone not given here; chain 2: sugars from the 5' end rrrrrrmrrrmrrrrmrrrdd, backbone not given here) [reference compound]", "values": [{"measurement": "IC50", "setting": "[1]", "result": "> 100", "unit": "nM"}]}, {"molecule": "Dig-Eg5 siRNA: mono-digoxygenated Eg5 siRNA, Seq. ID NO. 25/32 (chain 1 CUGAAGACCUGAAGACAAUUU; chain 2 AUUGUCUUCAGGUCUUCAGUU; chain 1: 2'-O-methyl at CU, RNA at AG, 3' {Dig}, backbone not given here; chain 2: RNA, backbone not given here; further chemistry not fully specified)", "values": [{"measurement": "IC50", "setting": "[1]", "result": 0.035, "unit": "nM"}, {"measurement": "IC50", "setting": "[2]", "result": 4, "unit": "nM"}]}, {"molecule": "Cy5 [reference compound]", "values": [{"measurement": "Emission wavelength (max.)", "setting": "[3]", "result": "at 670 nm"}, {"measurement": "Excitation wavelength", "setting": "[3]", "result": "575-605 nm"}]}, {"molecule": "Dig-Eg5-Cy5 siRNA: digoxygenated Cy5-labeled Eg5 siRNA, Seq. ID NO. 27/34 (chain 1 CUGAAGACCUGAAGACAAUUU; chain 2 AUUGUCUUCAGGUCUUCAGUU; chain 1: RNA, 5' {Cy5}, 3' {Dig}, backbone not given here; chain 2: RNA, backbone not given here)", "values": [{"measurement": "IC50", "setting": "[1]", "result": 0.013, "unit": "nM"}, {"measurement": "IC50", "setting": "[2]", "result": 215, "unit": "nM"}]}, {"molecule": "Eg5 siRNA: siRNA targeting Eg5, Seq. ID NO. 24/31 (chain 1 CUGAAGACCUGAAGACAAUUU; chain 2 AUUGUCUUCAGGUCUUCAGUU; chain 1: sugars from the 5' end r18 m3, backbone not given here; chain 2: RNA, backbone not given here)", "values": [{"measurement": "IC50", "setting": "[1]", "result": 0.016, "unit": "nM"}, {"measurement": "IC50", "setting": "[2]", "result": 28, "unit": "nM"}]}, {"molecule": "Dig-Luciferase siRNA: digoxygenated luciferase siRNA, Seq. ID NO. 23/30 (chain 1 CUUACGCUGAGUACUUCGATT; chain 2 UCGAAGUACUCAGCGUAAGTT; chain 1: DNA at T, 2'-O-methyl at CU, RNA at AG, 3' {Dig}, backbone not given here; chain 2: sugars from the 5' end rrrrrrmrrrmrrrrmrrrdd, backbone not given here; further chemistry not fully specified)", "values": [{"measurement": "IC50", "setting": "[1]", "result": "> 100", "unit": "nM"}]}, {"molecule": "B1", "values": [{"measurement": "Kd", "setting": "[4]", "result": 0.269, "unit": "nM"}, {"measurement": "Kd", "setting": "[5]", "result": "0.276 nM and 0.371 nM"}, {"measurement": "ka", "setting": "[5]", "result": "3.27e+06 M⁻¹ s⁻¹ and 2.26e+06 M⁻¹ s⁻¹"}, {"measurement": "kd", "setting": "[5]", "result": "0.000903 s⁻¹ and 0.000838 s⁻¹"}, {"measurement": "affinity to DIG-Myo compared with <DIG>-hu2 and disulfide-stabilized <DIG> scFv", "setting": "[6]; SPR", "result": "about a hundred fold better"}, {"measurement": "ka", "setting": "[6]; [8]", "result": "1.75e+06 M⁻¹ s⁻¹ and 2.28e+06 M⁻¹ s⁻¹"}, {"measurement": "kd", "setting": "[6]; [8]", "result": "0.000676 s⁻¹ and 0.000675 s⁻¹"}, {"measurement": "Kd", "setting": "[7]", "result": 0.017, "unit": "nM"}]}]}
